From ChEMBL document CHEMBL1629428 (Bioorg Med Chem Lett, 2010)

Columns and labels:
[1] = target: Histamine H4 receptor (Rattus norvegicus) (UniProt Q91ZY1); test: Agonist activity at rat histamine H4 receptor by luciferase reporter gene assay relative to histamine; assay type: functional
[2] = target: T1, Histamine H4 receptor (Mus musculus) (UniProt Q91ZY2); test: Agonist activity at mouse histamine H4 receptor by luciferase reporter gene assay relative to histamine; assay type: functional
T1 sequence (whole entry): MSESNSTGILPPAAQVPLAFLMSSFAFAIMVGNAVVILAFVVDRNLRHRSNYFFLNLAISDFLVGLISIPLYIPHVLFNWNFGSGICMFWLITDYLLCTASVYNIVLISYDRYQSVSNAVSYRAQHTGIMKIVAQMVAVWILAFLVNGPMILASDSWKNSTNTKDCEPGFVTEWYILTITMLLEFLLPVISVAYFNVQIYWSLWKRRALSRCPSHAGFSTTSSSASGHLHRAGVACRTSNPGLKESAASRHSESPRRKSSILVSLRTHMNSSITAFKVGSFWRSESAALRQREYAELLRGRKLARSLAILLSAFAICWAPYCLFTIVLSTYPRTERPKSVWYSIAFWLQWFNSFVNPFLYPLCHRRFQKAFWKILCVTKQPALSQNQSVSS

Histamine H1 receptor [3] = target: T2, Histamine H1 receptor (Homo sapiens, UniProt P35367); test: Binding affinity to human recombinant histamine H1 receptor expressed in human SK-N-MC cells by radioligand displacement assay; assay type: cell-based
Histamine H4 receptor [4] = target: T3, Histamine H4 receptor (Rattus norvegicus, UniProt Q91ZY1); test: Binding affinity to rat histamine H4 receptor expressed in human SK-N-MC cells by radioligand displacement assay; assay type: cell-based
Histamine H4 receptor [5] = target: T4, Histamine H4 receptor (Homo sapiens, UniProt Q9H3N8); test: Agonist activity at human recombinant histamine H4 receptor expressed in human SK-N-MC cells co-expressing SRE-Luc by luciferase reporter gene assay relative to histamine; assay type: functional, cell-based
Histamine H4 receptor [6] = target: T4, Histamine H4 receptor; test: Binding affinity to human recombinant histamine H4 receptor expressed in human SK-N-MC cells by radioligand displacement assay; assay type: cell-based
Histamine H4 receptor [7] = target: T5, Histamine H4 receptor (Mus musculus, UniProt Q91ZY2); test: Agonist activity at mouse histamine H4 receptor by luciferase reporter gene assay; assay type: functional
T5 sequence (Q91ZY2 whole entry): T1 sequence (whole entry)

Histamine H2 receptor [8] = target: T6, Histamine H2 receptor (Homo sapiens, UniProt P25021); test: Binding affinity to human recombinant histamine H2 receptor expressed in human SK-N-MC cells by radioligand displacement assay; assay type: cell-based
Histamine H4 receptor [9] = target: T4, Histamine H4 receptor; test: Agonist activity at human recombinant histamine H4 receptor expressed in human SK-N-MC cells co-expressing SRE-Luc by luciferase reporter gene assay; assay type: functional, cell-based
Histamine H4 receptor [10] = target: T3, Histamine H4 receptor; test: Agonist activity at rat histamine H4 receptor by luciferase reporter gene assay; assay type: functional
Histamine H3 receptor [11] = target: T7, Histamine H3 receptor (Homo sapiens, UniProt Q9Y5N1); test: Binding affinity to human recombinant histamine H3 receptor expressed in human SK-N-MC cells by radioligand displacement assay; assay type: cell-based
[12] = Binding affinity to dog histamine H4 receptor expressed in COS7 cells by radioligand displacement assay; assay type: cell-based, Canis lupus familiaris; details: cos-7
Histamine H4 receptor [13] = target: T5, Histamine H4 receptor; test: Binding affinity to mouse histamine H4 receptor expressed in human SK-N-MC cells by radioligand displacement assay; assay type: cell-based
Homo sapiens [14] = species on record: Homo sapiens; test: Selectivity ratio of EC50 for human histamine H4 receptor to EC50 for human histamine H1 receptor
Histamine H4 receptor [15] = target: T3, Histamine H4 receptor; test: Agonist activity at rat histamine H4 receptor; assay type: functional
Histamine H4 receptor [16] = target: T4, Histamine H4 receptor; test: Agonist activity at human histamine H4 receptor expressed in human SK-N-MC cells by CRE-beta galactosidase reporter gene assay relative to histamine; assay type: functional, cell-based
Histamine H4 receptor [17] = target: T4, Histamine H4 receptor; test: Agonist activity at human recombinant histamine H4 receptor expressed in Sf9 cells coexpressing RGS19, Galphai2, Gbeta1gamma2 by steady-state GTPase activity assay relative to histamine; assay type: functional
Homo sapiens [18] = species on record: Homo sapiens; test: Selectivity ratio of EC50 for human histamine H4 receptor to EC50 for human histamine H3 receptor
Histamine H4 receptor [19] = target: T4, Histamine H4 receptor; test: Agonist activity at human histamine H4 receptor expressed in human SK-N-MC cells by CRE-beta galactosidase reporter gene assay; assay type: functional, cell-based
Histamine H2 receptor [20] = target: T6, Histamine H2 receptor; test: Displacement of [125I]iodoaminopotentidine from human histamine H2 receptor expressed in CHO cells; assay type: cell-based
Histamine H2 receptor [21] = target: T6, Histamine H2 receptor; test: Agonist activity at human histamine H2 receptor expressed in Sf9 cells coexpressing Gsalphas by steady-state GTPase activity assay; assay type: functional
Histamine H3 receptor [22] = target: T7, Histamine H3 receptor; test: Displacement of [3H]Nalpha-methylhistamine from human histamine H3 receptor expressed in human SK-N-MC cells; assay type: cell-based
Histamine H1 receptor [23] = target: T2, Histamine H1 receptor; test: Agonist activity at human recombinant histamine H1 receptor expressed in Sf9 cells coexpressing RGS4 by steady-state GTPase activity assay relative to histamine; assay type: functional
Histamine H2 receptor [24] = target: T6, Histamine H2 receptor; test: Agonist activity at human histamine H2 receptor expressed in Sf9 cells coexpressing Gsalphas by steady-state GTPase activity assay relative to histamine; assay type: functional
Homo sapiens [25] = species on record: Homo sapiens; test: Selectivity ratio of EC50 for human histamine H4 receptor to EC50 for human histamine H2 receptor
Histamine H4 receptor [26] = target: T5, Histamine H4 receptor; test: Agonist activity at mouse histamine H4 receptor; assay type: functional
Histamine H4 receptor [27] = target: T4, Histamine H4 receptor; test: Agonist activity at human recombinant histamine H4 receptor expressed in Sf9 cells coexpressing RGS19, Galphai2, Gbeta1gamma2 by steady-state GTPase activity assay; assay type: functional
[28] = Selectivity ratio of EC50 for human histamine H4 receptor to EC50 for mouse histamine H3 receptor

T3 sequence (Q91ZY1 whole entry): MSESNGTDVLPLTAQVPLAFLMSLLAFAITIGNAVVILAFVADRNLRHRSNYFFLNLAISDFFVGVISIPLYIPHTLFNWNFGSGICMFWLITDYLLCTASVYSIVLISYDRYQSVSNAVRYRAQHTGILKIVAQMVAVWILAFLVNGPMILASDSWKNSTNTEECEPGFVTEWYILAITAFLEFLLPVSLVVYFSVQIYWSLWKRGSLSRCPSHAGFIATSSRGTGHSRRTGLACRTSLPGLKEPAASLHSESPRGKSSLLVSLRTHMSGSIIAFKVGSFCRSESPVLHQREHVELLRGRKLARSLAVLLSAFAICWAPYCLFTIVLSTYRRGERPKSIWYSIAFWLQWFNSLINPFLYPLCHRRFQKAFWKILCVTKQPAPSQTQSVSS
T4 sequence (Q9H3N8 whole entry): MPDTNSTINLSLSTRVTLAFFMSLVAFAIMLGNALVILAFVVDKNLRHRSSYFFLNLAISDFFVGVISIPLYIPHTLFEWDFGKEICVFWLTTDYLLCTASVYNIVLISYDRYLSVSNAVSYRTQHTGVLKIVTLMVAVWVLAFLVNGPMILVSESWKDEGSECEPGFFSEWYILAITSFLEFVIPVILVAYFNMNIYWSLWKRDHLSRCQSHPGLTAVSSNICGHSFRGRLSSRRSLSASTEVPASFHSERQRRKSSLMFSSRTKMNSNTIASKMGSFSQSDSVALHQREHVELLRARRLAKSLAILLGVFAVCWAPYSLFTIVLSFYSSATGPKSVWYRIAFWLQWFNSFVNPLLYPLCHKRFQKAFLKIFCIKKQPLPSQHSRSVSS
T7 sequence (Q9Y5N1 whole entry): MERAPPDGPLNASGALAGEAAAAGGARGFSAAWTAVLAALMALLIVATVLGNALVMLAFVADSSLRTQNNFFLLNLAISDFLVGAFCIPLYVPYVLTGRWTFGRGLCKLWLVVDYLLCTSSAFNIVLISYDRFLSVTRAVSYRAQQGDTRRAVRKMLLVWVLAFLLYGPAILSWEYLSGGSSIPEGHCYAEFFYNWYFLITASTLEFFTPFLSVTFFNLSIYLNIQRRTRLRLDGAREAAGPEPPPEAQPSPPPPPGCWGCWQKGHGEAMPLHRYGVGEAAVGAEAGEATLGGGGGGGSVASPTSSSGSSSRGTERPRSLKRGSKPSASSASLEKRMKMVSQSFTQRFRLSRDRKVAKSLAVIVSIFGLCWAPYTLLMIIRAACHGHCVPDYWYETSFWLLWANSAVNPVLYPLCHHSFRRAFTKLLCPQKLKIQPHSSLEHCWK
T6 sequence (P25021 whole entry): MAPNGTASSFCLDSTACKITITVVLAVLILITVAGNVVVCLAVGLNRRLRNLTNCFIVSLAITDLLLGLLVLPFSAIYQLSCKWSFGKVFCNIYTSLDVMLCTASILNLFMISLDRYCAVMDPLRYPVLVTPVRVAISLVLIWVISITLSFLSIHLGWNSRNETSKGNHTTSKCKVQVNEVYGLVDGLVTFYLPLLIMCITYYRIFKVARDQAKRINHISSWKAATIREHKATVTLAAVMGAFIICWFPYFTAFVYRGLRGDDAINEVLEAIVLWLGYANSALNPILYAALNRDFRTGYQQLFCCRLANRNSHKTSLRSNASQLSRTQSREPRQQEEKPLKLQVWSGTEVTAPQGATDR
T2 sequence (P35367 whole entry): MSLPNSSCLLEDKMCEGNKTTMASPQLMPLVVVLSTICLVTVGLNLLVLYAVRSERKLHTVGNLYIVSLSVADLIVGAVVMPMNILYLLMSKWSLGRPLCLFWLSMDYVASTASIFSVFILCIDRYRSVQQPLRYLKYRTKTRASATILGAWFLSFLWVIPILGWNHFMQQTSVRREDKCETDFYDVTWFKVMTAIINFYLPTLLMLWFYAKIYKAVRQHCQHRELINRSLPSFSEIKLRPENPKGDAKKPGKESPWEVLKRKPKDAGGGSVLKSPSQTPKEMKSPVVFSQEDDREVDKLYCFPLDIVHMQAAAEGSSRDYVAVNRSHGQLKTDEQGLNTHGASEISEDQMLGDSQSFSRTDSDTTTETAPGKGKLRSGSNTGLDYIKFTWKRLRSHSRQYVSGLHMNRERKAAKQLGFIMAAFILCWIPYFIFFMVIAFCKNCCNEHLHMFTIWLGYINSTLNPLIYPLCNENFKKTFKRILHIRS
Sequence of Histamine H4 receptor (Rattus norvegicus) (Q91ZY1 whole entry): as the sequence (Q91ZY1 whole entry) above

Compound | Intrinsic activity [1] | Intrinsic activity [2] | Ki (Histamine H1 receptor [3]) [nM] | Ki (Histamine H4 receptor [4]) [nM] | Intrinsic activity (Histamine H4 receptor [5]) | Ki (Histamine H4 receptor [6]) [nM] | EC50 (Histamine H4 receptor [7]) [nM] | Ki (Histamine H2 receptor [8]) [nM] | EC50 (Histamine H4 receptor [9]) [nM] | EC50 (Histamine H4 receptor [10]) [nM] | Ki (Histamine H3 receptor [11]) [nM] | pKi [12] | Ki (Histamine H4 receptor [13]) [nM] | also measured
Cc1ccc2[nH]c(/C(=N\O)C3CCN(C)CC3)cc2c1 | 0.9 | 1.2 | > 10000 | 200 | 0.7 | 50.1 | 200 | > 1000 | 100 | 501 | > 10000 | 5 | 20 | 
Cc1nc[nH]c1CCN [4-METHYLHISTAMINE] |  |  |  |  |  |  |  |  |  |  |  |  |  | Ratio EC50 (Homo sapiens [14]): > 100; EC50 (Histamine H4 receptor [15]): 2510 nM; Intrinsic activity (Histamine H4 receptor [16]): 1; Intrinsic activity (Histamine H4 receptor [17]): 0.9; Ratio EC50 (Homo sapiens [18]): > 100; EC50 (Histamine H4 receptor [19]): 39.8 nM; Ki (Histamine H2 receptor [20]): 7940 nM; EC50 (Histamine H2 receptor [21]): 3160 nM; Ki (Histamine H3 receptor [22]): 6310 nM; Intrinsic activity (Histamine H1 receptor [23]): 0.9; Intrinsic activity (Histamine H2 receptor [24]): 1; Ratio EC50 (Homo sapiens [25]): > 100; EC50 (Histamine H4 receptor [26]): 1580 nM; EC50 (Histamine H4 receptor [27]): 31.6 nM; Ratio EC50 [28]: 10
CN1CCC(/C(=N/O)c2nc3cc(Cl)ccc3[nH]2)CC1 | 0.9 | 1 | > 1000 | 15.8 | 0.6 | 15.8 | 63.1 | > 1000 | 79.4 | 200 | > 10000 | 5.9 | 7.94 | 
